# Measurements published in patent publication US20120225862A1, “HETEROARYL BENZAMIDES, COMPOSITIONS AND METHODS OF USE” (AUCKLAND UNIVSERVICES LIMITED, priority 2009, published 2012).
# Legend:
# RCC4/VHL = experiment: XTT IC50 assay, selectivity RCC4 versus RCC4 with VHL-reintroduced; format: cell-based, human; settings: selectivity ratio of XTT IC50 values, RCC4 vs RCC4/VHL
# Method in brief: (§1)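 RCC4 parental and VHL-reintroduced RCC4/VHL cells (DMEM, 10% FCS) treated with serially diluted drug for four days. Viability by XTT (0.3 mg/mL) with N-methyl dibenzopyrazine methyl sulfate, 1–2 h at 37 °C, absorbance 450 nm; IC50 by linear interpolation.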
# RCC4 = experiment: XTT IC50 / viability assay, RCC4 cells; format: cell-based, human; settings: Homo sapiens, RCC4, 96 h; XTT assay, four days
# Method in brief: as §1
compound,measurement,setting,value
"O=C(Nc1cccnc1)c1ccc(CNS(=O)(=O)c2ccc(C34CC5CC(CC(C5)C3)C4)cc2)cc1 (hydrate or solvate) [Example 39, 4-[({[4-(1-Adamantyl)phenyl]sulfonyl}amino)methyl]-N-(3-pyridinyl)benzamide]",melting point,,220 to 222 °C
"Cc1cc(C(=O)Nc2cccnc2)ccc1CNS(=O)(=O)c1ccc(C(C)(C)C)cc1 [Example 147, 4-({[(4-tert-Butylphenyl)sulfonyl]amino}methyl)-3-methyl-N-(3-pyridinyl)benzamide]",melting point,,203 to 205 °C
"CC(C)(C)c1ccc(S(=O)(=O)NCc2ccc(C(=O)Nc3ccncc3)cc2)cc1 [Example 106, 4-((4-tert-Butylphenylsulfonamido)methyl)-N-(pyridin-4-yl)benzamide]",melting point,,261 to 263 °C
"CCC(=O)Nc1cccc(S(=O)(=O)NCc2ccc(C(=O)Nc3cccnc3)cc2)c1 [Example 143, 4-[({[3-(Propionylamino)phenyl]sulfonyl}amino)methyl]-N-(3-pyridinyl)benzamide]",melting point,,215 to 218 °C
"N#Cc1cc(S(=O)(=O)NCc2ccc(C(=O)Nc3cccnc3)cc2)ccc1F [Example 71, 4-((3-Cyano-4-fluorophenylsulfonamido)methyl)-N-(pyridin-3-yl)benzamide]",melting point,,211 to 213 °C
"Cc1nc(-c2ccc(S(=O)(=O)NCc3ccc(C(=O)Nc4cccnc4)cc3)cc2)cs1 [Example 59, 4-[({[4-(2-Methyl-1,3-thiazol-4-yl)phenyl]sulfonyl}amino)methyl]-N-(3-pyridinyl)benzamide]",Ratio (RCC4:RCC/VHL),RCC4/VHL,b (“b” reflects from 10 to 100)
same,IC50,RCC4,1000 to 20000 nM
"CC(C)(C)c1ccc(CNCc2ccc(C(=O)Nc3cccnc3)cc2)cc1 [Compound B, reference compound]",Ratio (RCC4:RCC/VHL),RCC4/VHL,a (“a” reflects a ratio of RCC4/RCC-VHL+ ranging from 1 to 10)
same,IC50,RCC4,1000 to 20000 nM
"O=C(Nc1cccnc1)c1ccc(CNS(=O)(=O)c2ccc(-c3ncccn3)cc2)cc1 [Example 57, 4-[({[4-(2-Pyrimidinyl)phenyl]sulfonyl}amino)methyl]-N-(3-pyridinyl)-benzamide]",Ratio (RCC4:RCC/VHL),RCC4/VHL,b (“b” reflects from 10 to 100)
same,IC50,RCC4,< 1000 nM
"O=C(Nc1cccnc1)c1ccc(CNS(=O)(=O)c2ccc(CCCO)cc2)cc1 [Example 104, 4-[({[4-(3-Hydroxypropyl)phenyl]sulfonyl}amino)methyl]-N-(3-pyridinyl)benzamide]",Ratio (RCC4:RCC/VHL),RCC4/VHL,c (“c” reflects a ratio of >100)
same,IC50,RCC4,< 1000 nM
"O=C(Nc1cccnc1)c1ccc(CNS(=O)(=O)c2ccc(Br)cc2)cc1 [Example 45, 4-((4-Bromophenylsulfonamido)methyl)-N-(pyridin-3-yl)benzamide]",Ratio (RCC4:RCC/VHL),RCC4/VHL,b (“b” reflects from 10 to 100)
same,IC50,RCC4,1000 to 20000 nM
"C=CC(=O)Nc1cccc(S(=O)(=O)NCc2ccc(C(=O)Nc3cccnc3)cc2)c1 [Example 144, 4-[({[3-(Acryloylamino)phenyl]sulfonyl}amino)methyl]-N-(3-pyridinyl)benzamide]",melting point,,178 to 180 °C
"CN(Cc1ccc(C(=O)Nc2cccnc2)cc1)S(=O)(=O)c1ccc(C(C)(C)C)cc1 [Example 138, 4-{[[(4-tert-Butylphenyl)sulfonyl](methyl)amino]methyl}-N-(3-pyridinyl)benzamide]",Ratio (RCC4:RCC/VHL),RCC4/VHL,a (“a” reflects a ratio of RCC4/RCC-VHL+ ranging from 1 to 10)
same,IC50,RCC4,1000 to 20000 nM
"O=C(Nc1cccnc1)c1ccc(CNS(=O)(=O)c2ccc(NCCCN3CCOCC3)cc2)cc1 [Example 131, 4-({[(4-{[3-(4-Morpholinyl)propyl]amino}phenyl)sulfonyl]amino}methyl)-N-(3-pyridinyl)benzamide]",Ratio (RCC4:RCC/VHL),RCC4/VHL,b (“b” reflects from 10 to 100)
same,IC50,RCC4,< 1000 nM
"CCN(CC)Cc1ccc(S(=O)(=O)NCc2ccc(C(=O)Nc3cccnc3)cc2)cc1 [Example 78, 4-{[({4-[(Diethylamino)methyl]phenyl}sulfonyl)amino]methyl}-N-(3-pyridinyl)benzamide]",Ratio (RCC4:RCC/VHL),RCC4/VHL,c (“c” reflects a ratio of >100)
same,IC50,RCC4,< 1000 nM
"CC(=O)c1ccc(S(=O)(=O)NCc2ccc(C(=O)Nc3cccnc3)cc2)cc1 [Example 48, 4-((4-Acetylphenylsulfonamido)methyl)-N-(pyridin-3-yl)benzamide]",Ratio (RCC4:RCC/VHL),RCC4/VHL,b (“b” reflects from 10 to 100)
same,IC50,RCC4,< 1000 nM
"O=C(Nc1cccnc1)c1ccc(CNS(=O)(=O)c2ccccc2)cc1 [Example 2, 4-(Phenylsulfonamidomethyl)-N-(pyridin-3-yl)benzamide]",Ratio (RCC4:RCC/VHL),RCC4/VHL,a (“a” reflects a ratio of RCC4/RCC-VHL+ ranging from 1 to 10)
same,IC50,RCC4,1000 to 20000 nM
"CC(C)(C)c1ccc(S(=O)(=O)NCc2ccc(C(=O)Nc3cccnc3)c(F)c2)cc1 [Example 146, 4-({[(4-tert-Butylphenyl)sulfonyl]amino}methyl)-2-fluoro-N-(3-pyridinyl)benzamide]",melting point,,185 to 187 °C
"O=C(Nc1cccnc1)c1ccc(CNS(=O)(=O)c2ccc(F)cc2)cc1 [Example 43, 4-((4-Fluorophenylsulfonamido)methyl)-N-(pyridin-3-yl)benzamide]",Ratio (RCC4:RCC/VHL),RCC4/VHL,a (“a” reflects a ratio of RCC4/RCC-VHL+ ranging from 1 to 10)
same,IC50,RCC4,1000 to 20000 nM
"Cc1cccc(Nc2nc(-c3ccncc3)cs2)c1 [Compound E, reference compound]",Ratio (RCC4:RCC/VHL),RCC4/VHL,b (“b” reflects from 10 to 100)
same,IC50,RCC4,1000 to 20000 nM
"N#Cc1ccc(S(=O)(=O)NCc2ccc(C(=O)Nc3cccnc3)cc2)cc1 [Example 50, 4-((4-Cyanophenylsulfonamido)methyl)-N-(pyridin-3-yl)benzamide]",Ratio (RCC4:RCC/VHL),RCC4/VHL,a (“a” reflects a ratio of RCC4/RCC-VHL+ ranging from 1 to 10)
same,IC50,RCC4,1000 to 20000 nM
"CC(C)(C)c1ccc(S(=O)(=O)NCc2ccc(C(=O)Nc3cccnc3)cc2F)cc1 [Example 148, 4-({[(4-tert-Butylphenyl)sulfonyl]amino}methyl)-3-fluoro-N-(3-pyridinyl)benzamide]",melting point,,198 to 200 °C
"COc1ccc(S(=O)(=O)NCc2ccc(C(=O)Nc3cccnc3)cc2)cc1OC [Example 61, 4-((3,4-Dimethoxyphenylsulfonamido)methyl)-N-(pyridin-3-yl)benzamide]",Ratio (RCC4:RCC/VHL),RCC4/VHL,c (“c” reflects a ratio of >100)
same,IC50,RCC4,< 1000 nM
"O=C(Nc1cccnc1)c1ccc(CNS(=O)(=O)c2ccccc2Cl)cc1 [Example 12, 4-((2-Chlorophenylsulfonamido)methyl)-N-(pyridin-3-yl)benzamide]",Ratio (RCC4:RCC/VHL),RCC4/VHL,a (“a” reflects a ratio of RCC4/RCC-VHL+ ranging from 1 to 10)
same,IC50,RCC4,1000 to 20000 nM
"O=C(Nc1cccnc1)c1ccc(CNS(=O)(=O)c2cccc(-c3ncccn3)c2)cc1 [Example 27, 4-[({[3-(2-Pyrimidinyl)phenyl]sulfonyl}amino)methyl]-N-(3-pyridinyl)benzamide]",Ratio (RCC4:RCC/VHL),RCC4/VHL,b (“b” reflects from 10 to 100)
same,IC50,RCC4,< 1000 nM
"Cc1nc(-c2cccc(S(=O)(=O)NCc3ccc(C(=O)Nc4cccnc4)cc3)c2)no1 [Example 30, 4-[({[3-(5-Methyl-1,2,4-oxadiazol-3-yl)phenyl]sulfonyl}amino)methyl]-N-(3-pyridinyl)benzamide]",Ratio (RCC4:RCC/VHL),RCC4/VHL,c (“c” reflects a ratio of >100)
same,IC50,RCC4,< 1000 nM
"CN(C)CCNc1ccc(S(=O)(=O)NCc2ccc(C(=O)Nc3cccnc3)cc2)cc1 [Example 133, 4-({[(4-{[2-(Dimethylamino)ethyl]amino}phenyl)sulfonyl]amino}methyl)-N-(3-pyridinyl)benzamide]",Ratio (RCC4:RCC/VHL),RCC4/VHL,c (“c” reflects a ratio of >100)
same,IC50,RCC4,< 1000 nM
"O=C(Nc1cccnc1)c1ccc(CNS(=O)(=O)c2ccc(Cc3ccccc3)cc2)cc1 [Example 135, 4-({[(4-Benzylphenyl)sulfonyl]amino}methyl)-N-(3-pyridinyl)benzamide]",Ratio (RCC4:RCC/VHL),RCC4/VHL,b (“b” reflects from 10 to 100)
same,IC50,RCC4,< 1000 nM
"Cc1ccc(S(=O)(=O)NCc2ccc(C(=O)Nc3cccnc3)cc2)cc1F [Example 67, 4-((3-Fluoro-4-methylphenylsulfonamido)methyl)-N-(pyridin-3-yl)benzamide]",Ratio (RCC4:RCC/VHL),RCC4/VHL,c (“c” reflects a ratio of >100)
same,IC50,RCC4,< 1000 nM
"COC1CCN(c2ccc(S(=O)(=O)NCc3ccc(C(=O)Nc4cccnc4)cc3)cc2)CC1 [Example 129, 4-[({[4-(4-Methoxy-1-piperidinyl)phenyl]sulfonyl}amino)methyl]-N-(3-pyridinyl)benzamide]",Ratio (RCC4:RCC/VHL),RCC4/VHL,c (“c” reflects a ratio of >100)
same,IC50,RCC4,< 1000 nM
"Cc1cc(C)cc(S(=O)(=O)NCc2ccc(C(=O)Nc3cccnc3)cc2)c1 [Example 66, 4-((3,5-Dimethylphenylsulfonamido)methyl)-N-(pyridin-3-yl)benzamide]",Ratio (RCC4:RCC/VHL),RCC4/VHL,c (“c” reflects a ratio of >100)
same,IC50,RCC4,< 1000 nM
"COc1ccc(S(=O)(=O)NCc2ccc(C(=O)Nc3cccnc3)cc2)cc1 [Example 33, 4-((4-Methoxyphenylsulfonamido)methyl)-N-(pyridin-3-yl)benzamide]",Ratio (RCC4:RCC/VHL),RCC4/VHL,b (“b” reflects from 10 to 100)
same,IC50,RCC4,1000 to 20000 nM
"CCCN(CCC)Cc1ccc(S(=O)(=O)NCc2ccc(C(=O)Nc3cccnc3)cc2)cc1 [Example 79, 4-{[({4-[(Dipropylamino)methyl]phenyl}sulfonyl)amino]methyl}-N-(3-pyridinyl)benzamide]",Ratio (RCC4:RCC/VHL),RCC4/VHL,b (“b” reflects from 10 to 100)
same,IC50,RCC4,< 1000 nM
"CCCc1ccc(S(=O)(=O)NCc2ccc(C(=O)Nc3cccnc3)cc2)cc1 [Example 37, 4-((4-Propylphenylsulfonamido)methyl)-N-(pyridin-3-yl)benzamide]",Ratio (RCC4:RCC/VHL),RCC4/VHL,b (“b” reflects from 10 to 100)
same,IC50,RCC4,< 1000 nM
"Nc1cccc(S(=O)(=O)NCc2ccc(C(=O)Nc3cccnc3)cc2)c1 [Example 17, 4-((3-Aminophenylsulfonamido)methyl)-N-(pyridin-3-yl)benzamide]",Ratio (RCC4:RCC/VHL),RCC4/VHL,b (“b” reflects from 10 to 100)
same,IC50,RCC4,1000 to 20000 nM
